# Test system: hairy mouse skin
# Details: 2:1 nanoemulsion, aqueous phase 0.05 M HEPES pH 7.4; 5 μg/ml inulin or 3 μg/ml tranexamic acid, FIG. 9
substance,measurement,value
inulin,marker permeation slope,0.233 % per hour per square centimeter

# From patent publication US20020155084A1, “Nanoemulsion formulations” (The Regents of the University of the Michigan, priority 2000, published 2002)
